Measured values from the supplement of paper PMC10883282.

Experiments:
Assay in all cases: standardised AUC of viability dose-response curve (72 h) (fraction (0-1)); higher = less growth inhibition (more resistant)
[1] = tested on: KHOS-240S
Summary of the method: (§1)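 Sarcoma cell lines in 384-well plates were treated in triplicate for 72 h with 2.5 µl of a compound dilution series, made in 1:3 steps from 10 mM to 0.0002 mM on the compound plate. ATPLite viability was scaled from 1 (full) to 0 (none) and fitted per drug and cell line with a four-parameter log-logistic model. The values are standardised areas under the dose-response curve in log-dose space, from a modified drexplorer computeAUC. On that scale, 1 means no response and 0 means full response.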

[2] = tested on: A204
Summary of the method: as §1

[3] = tested on: SK-LMS-1
Summary of the method: as §1

[4] = tested on: SK-ES-1
Summary of the method: as §1

[5] = tested on: SW982
Summary of the method: as §1

[6] = tested on: G401
Summary of the method: as §1

[7] = tested on: HS729
Summary of the method: as §1

[8] = tested on: MES-SA
Summary of the method: as §1

[9] = tested on: SW1353
Summary of the method: as §1

[10] = tested on: SW684
Summary of the method: as §1

[11] = tested on: SW872
Summary of the method: as §1

[12] = tested on: RD-ES
Summary of the method: as §1

[13] = tested on: SYO-1
Summary of the method: as §1

[14] = tested on: VA-ES-BJ
Summary of the method: as §1

[15] = tested on: HT1080
Summary of the method: as §1

[16] = tested on: RD
Summary of the method: as §1

[17] = tested on: KHOS-NP
Summary of the method: as §1

| SMILES | standardised AUC [1] | standardised AUC [2] | standardised AUC [3] | standardised AUC [4] | standardised AUC [5] | standardised AUC [6] | standardised AUC [7] | standardised AUC [8] | standardised AUC [9] | standardised AUC [10] | standardised AUC [11] | standardised AUC [12] | standardised AUC [13] | standardised AUC [14] | standardised AUC [15] | standardised AUC [16] | standardised AUC [17] |
| --- | --- | --- | --- | --- | --- | --- | --- | --- | --- | --- | --- | --- | --- | --- | --- | --- | --- |
| COC(=O)[C@@]1(O)C[C@H]2O[C@]1(C)n1c3ccccc3c3c4c(c5c6ccccc6n2c5c31)C(=O)NC4 [K-252A] | 0.717 | 0.617 | 0.666 | 0.543 | 0.628 | 0.745 | 0.756 | 0.631 | 0.766 | 0.774 | 0.68 | 0.647 | 0.668 | 0.7 | 0.818 | 0.81 | 0.776 |
| CCC(=O)N1CC[C@H](Nc2ncnc3c2CN(c2cnc(OC)c(C(F)(F)F)c2)CC3)C1 [LENIOLISIB] | 0.962 | 0.929 | 0.927 | 0.96 | 0.955 | 0.929 | 0.935 | 0.955 | 0.934 | 0.83 | 0.947 | 0.95 | 0.923 | 0.955 | 0.961 | 0.988 | 0.97 |
| C[C@]12O[C@H](C[C@]1(O)CO)n1c3ccccc3c3c4c(c5c6ccccc6n2c5c31)CNC4=O [LESTAURTINIB] | 0.72 | 0.646 | 0.721 | 0.526 | 0.614 | 0.821 | 0.762 | 0.64 | 0.764 | 0.805 | 0.655 | 0.62 | 0.656 | 0.667 | 0.802 | 0.821 | 0.762 |
| N#CCNC(=O)c1ccc(-c2ccnc(Nc3ccc(N4CCOCC4)cc3)n2)cc1 [MOMELOTINIB] | 0.91 | 0.829 | 0.941 | 0.815 | 0.861 | 0.889 | 0.922 | 0.863 | 0.893 | 0.907 | 0.898 | 0.944 | 0.839 | 0.964 | 1 | 0.994 | 0.979 |
| Cc1ccc(Nc2nccc(N(C)c3ccc4c(C)n(C)nc4c3)n2)cc1S(N)(=O)=O [PAZOPANIB] | 0.951 | 0.699 | 0.974 | 0.966 | 0.987 | 0.914 | 0.91 | 0.964 | 0.98 | 0.99 | 0.984 | 0.988 | 0.78 | 1 | 0.999 | 0.997 | 0.978 |
| CCN1C(=O)N(c2c(F)c(OC)cc(OC)c2F)Cc2cnc3[nH]c(CN4CCOCC4)cc3c21 [PEMIGATINIB] | 0.88 | 0.685 | 0.924 | 0.839 | 0.889 | 0.696 | 0.748 | 0.822 | 0.861 | 0.951 | 0.946 | 0.942 | 0.804 | 0.951 | 0.97 | 0.938 | 0.991 |
| COc1cc(OC)c(/C=C/S(=O)(=O)Cc2ccc(OC)c(NCC(=O)O)c2)c(OC)c1 [RIGOSERTIB] | 0.636 | 0.779 | 0.719 | 0.584 | 0.748 | 0.852 | 0.882 | 0.681 | 0.822 | 0.851 | 0.854 | 0.644 | 0.827 | 0.755 | 0.707 | 0.712 | 0.805 |
| COCCNc1cc(NC(=O)N2CCCc3cc(CN4CCN(C)CC4=O)c(C=O)nc32)ncc1C#N [ROBLITINIB] | 0.983 | 0.963 | 0.988 | 0.976 | 0.997 | 0.979 | 0.971 | 0.975 | 0.995 | 0.994 | 1 | 0.978 | 0.959 | 0.994 | 0.996 | 0.992 | 0.994 |
| Cc1cc2cc(Oc3ccnc(Nc4cccc(CS(=O)(=O)NCCN(C)C)c4)n3)ccc2[nH]1 [SULFATINIB] | 0.931 | 0.805 | 0.965 | 0.955 | 0.924 | 0.909 | 0.874 | 0.95 | 0.97 | 0.966 | 0.96 | 0.962 | 0.759 | 0.987 | 0.99 | 0.964 | 0.982 |
| CCN(CC)CCNC(=O)c1c(C)[nH]c(/C=C2\C(=O)Nc3ccc(F)cc32)c1C [SUNITINIB] | 0.815 | 0.558 | 0.908 | 0.716 | 0.754 | 0.907 | 0.804 | 0.829 | 0.855 | 0.876 | 0.813 | 0.755 | 0.648 | 0.881 | 0.864 | 0.836 | 0.88 |
| Cn1ncnc1[C@H]1c2n[nH]c(=O)c3cc(F)cc(c23)N[C@@H]1c1ccc(F)cc1 [TALAZOPARIB] | 0.86 | 0.79 | 0.905 | 0.376 | 0.749 | 0.817 | 0.936 | 0.675 | 0.836 | 0.956 | 0.826 | 0.433 | 0.48 | 0.725 | 0.83 | 0.832 | 0.919 |
| O=c1sn(-c2cccc3ccccc23)c(=O)n1Cc1ccccc1 [TIDEGLUSIB] | 0.983 | 0.994 | 0.99 | 0.975 | 0.993 | 0.951 | 0.913 | 0.971 | 0.966 | 0.964 | 0.976 | 0.985 | 0.962 | 0.972 | 0.999 | 0.996 | 0.99 |
| O=C1NC(=O)[C@@H](c2cn3c4c(cccc24)CCC3)[C@@H]1c1c[nH]c2ccccc12 [TIVANTINIB] | 0.782 | 0.844 | 0.79 | 0.718 | 0.792 | 0.865 | 0.896 | 0.754 | 0.879 | 0.883 | 0.859 | 0.768 | 0.804 | 0.829 | 0.796 | 0.789 | 0.867 |
| Cc1[nH]c(/C=C2\C(=O)Nc3ccc(F)cc32)c(C)c1C(=O)NCCN1CCCC1 [TOCERANIB] | 0.841 | 0.669 | 0.891 | 0.795 | 0.833 | 0.923 | 0.739 | 0.82 | 0.926 | 0.937 | 0.864 | 0.778 | 0.632 | 0.918 | 0.908 | 0.957 | 0.931 |
| CC(C)Oc1ccc(-c2nn([C@@H](C)c3oc4ccc(F)cc4c(=O)c3-c3cccc(F)c3)c3ncnc(N)c23)cc1F [UMBRALISIB] | 0.983 | 0.969 | 0.966 | 0.985 | 1 | 0.983 | 0.939 | 0.989 | 0.949 | 0.937 | 0.987 | 0.993 | 0.97 | 0.982 | 0.984 | 0.998 | 0.994 |
| CC[C@@H]1CN(C(=O)NCC(F)(F)F)C[C@@H]1c1cnc2cnc3[nH]ccc3n12 [UPADACITINIB] | 0.956 | 0.97 | 0.974 | 0.988 | 0.979 | 0.961 | 0.915 | 0.977 | 0.945 | 0.984 | 0.951 | 0.994 | 0.913 | 0.962 | 0.976 | 0.993 | 0.975 |
| Clc1ccc(Nc2nnc(Cc3ccncc3)c3ccccc23)cc1 [VATALANIB] | 0.978 | 0.864 | 0.975 | 0.998 | 0.997 | 0.971 | 0.989 | 0.998 | 0.979 | 0.988 | 0.994 | 0.99 | 0.937 | 1 | 1 | 0.995 | 1 |
